Measured values taken from ChEMBL document CHEMBL1938230, “6-Position optimization of tricyclic 4-quinolone-based inhibitors of glycogen synthase kinase-3β: discovery of nitrile derivatives with picomolar potency” (Bioorg Med Chem Lett, 2012).

Assays:
Format in all cases: cell-free
[1] = biological target: 1-phosphatidylinositol 3-phosphate 5-kinase (Homo sapiens) (UniProt Q9Y2I7); test: Inhibition of human PIP5K3 in HL-60 cells lysate assessed as reduction of labeling of acyl-phosphate ATP probe at 100 nM
[2] = biological target: T1, Inhibitor of nuclear factor kappa-B kinase subunit epsilon (Homo sapiens) (UniProt Q14164); test: Inhibition of human IKKepsilon in HL-60 cells lysate assessed as reduction of labeling of acyl-phosphate ATP probe at 100 nM
T1 sequence (whole entry): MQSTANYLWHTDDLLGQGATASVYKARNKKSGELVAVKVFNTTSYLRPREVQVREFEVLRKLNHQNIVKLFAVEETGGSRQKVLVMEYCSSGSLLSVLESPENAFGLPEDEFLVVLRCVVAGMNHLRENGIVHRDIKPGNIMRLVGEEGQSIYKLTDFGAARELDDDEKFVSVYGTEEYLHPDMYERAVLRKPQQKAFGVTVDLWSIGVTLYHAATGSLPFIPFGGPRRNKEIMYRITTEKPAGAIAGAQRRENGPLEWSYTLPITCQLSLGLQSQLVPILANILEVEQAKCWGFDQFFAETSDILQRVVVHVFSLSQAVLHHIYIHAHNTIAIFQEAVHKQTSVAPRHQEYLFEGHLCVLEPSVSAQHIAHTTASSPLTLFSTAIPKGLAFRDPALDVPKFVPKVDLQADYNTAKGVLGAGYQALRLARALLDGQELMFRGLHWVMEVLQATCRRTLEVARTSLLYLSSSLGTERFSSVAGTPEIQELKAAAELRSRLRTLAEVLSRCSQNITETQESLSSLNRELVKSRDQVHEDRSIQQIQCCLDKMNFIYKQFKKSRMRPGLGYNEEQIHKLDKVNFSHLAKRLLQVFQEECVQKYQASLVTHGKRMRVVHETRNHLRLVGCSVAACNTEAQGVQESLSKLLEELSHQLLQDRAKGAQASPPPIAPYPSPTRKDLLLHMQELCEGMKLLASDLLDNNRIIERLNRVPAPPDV

[3] = biological target: T2, Serine/threonine-protein kinase Nek1 (Homo sapiens) (UniProt Q96PY6); test: Inhibition of human NEK1 in HL-60 cells lysate assessed as reduction of labeling of acyl-phosphate ATP probe at 100 nM
T2 sequence (whole entry): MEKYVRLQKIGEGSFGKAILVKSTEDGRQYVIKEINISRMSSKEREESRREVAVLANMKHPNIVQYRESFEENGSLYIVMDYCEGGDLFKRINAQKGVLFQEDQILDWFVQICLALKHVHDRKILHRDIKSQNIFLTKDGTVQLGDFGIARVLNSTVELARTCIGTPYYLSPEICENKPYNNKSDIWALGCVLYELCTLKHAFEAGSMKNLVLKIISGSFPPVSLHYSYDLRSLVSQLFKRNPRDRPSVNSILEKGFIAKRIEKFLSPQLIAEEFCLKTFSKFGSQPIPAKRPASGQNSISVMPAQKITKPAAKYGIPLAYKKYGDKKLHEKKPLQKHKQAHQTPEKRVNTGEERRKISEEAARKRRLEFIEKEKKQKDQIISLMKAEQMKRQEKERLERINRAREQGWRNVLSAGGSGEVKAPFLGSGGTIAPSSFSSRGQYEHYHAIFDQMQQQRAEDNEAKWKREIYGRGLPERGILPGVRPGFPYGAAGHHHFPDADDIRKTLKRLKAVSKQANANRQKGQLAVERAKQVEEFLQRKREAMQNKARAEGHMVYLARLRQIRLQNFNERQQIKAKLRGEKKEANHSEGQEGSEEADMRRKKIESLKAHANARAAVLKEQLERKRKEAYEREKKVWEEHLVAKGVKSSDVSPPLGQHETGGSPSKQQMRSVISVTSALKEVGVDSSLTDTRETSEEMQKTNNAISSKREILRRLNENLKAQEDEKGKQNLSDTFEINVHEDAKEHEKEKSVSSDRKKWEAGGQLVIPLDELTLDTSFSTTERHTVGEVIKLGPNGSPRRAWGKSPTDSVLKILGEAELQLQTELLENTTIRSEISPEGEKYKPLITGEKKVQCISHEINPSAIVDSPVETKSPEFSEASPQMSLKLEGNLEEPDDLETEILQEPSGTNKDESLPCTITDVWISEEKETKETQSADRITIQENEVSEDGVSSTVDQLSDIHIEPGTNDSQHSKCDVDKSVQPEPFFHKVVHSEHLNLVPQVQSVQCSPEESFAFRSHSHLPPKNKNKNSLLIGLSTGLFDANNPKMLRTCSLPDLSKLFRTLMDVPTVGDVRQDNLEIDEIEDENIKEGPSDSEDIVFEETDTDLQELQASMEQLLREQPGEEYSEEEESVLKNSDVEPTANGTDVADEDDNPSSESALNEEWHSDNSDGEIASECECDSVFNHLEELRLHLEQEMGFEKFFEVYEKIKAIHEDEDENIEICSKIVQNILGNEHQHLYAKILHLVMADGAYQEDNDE

[4] = biological target: T3, Serine/threonine-protein kinase TBK1 (Homo sapiens) (UniProt Q9UHD2); test: Inhibition of human TBK1 in HL-60 cells lysate assessed as reduction of labeling of acyl-phosphate ATP probe at 100 nM
T3 sequence (whole entry): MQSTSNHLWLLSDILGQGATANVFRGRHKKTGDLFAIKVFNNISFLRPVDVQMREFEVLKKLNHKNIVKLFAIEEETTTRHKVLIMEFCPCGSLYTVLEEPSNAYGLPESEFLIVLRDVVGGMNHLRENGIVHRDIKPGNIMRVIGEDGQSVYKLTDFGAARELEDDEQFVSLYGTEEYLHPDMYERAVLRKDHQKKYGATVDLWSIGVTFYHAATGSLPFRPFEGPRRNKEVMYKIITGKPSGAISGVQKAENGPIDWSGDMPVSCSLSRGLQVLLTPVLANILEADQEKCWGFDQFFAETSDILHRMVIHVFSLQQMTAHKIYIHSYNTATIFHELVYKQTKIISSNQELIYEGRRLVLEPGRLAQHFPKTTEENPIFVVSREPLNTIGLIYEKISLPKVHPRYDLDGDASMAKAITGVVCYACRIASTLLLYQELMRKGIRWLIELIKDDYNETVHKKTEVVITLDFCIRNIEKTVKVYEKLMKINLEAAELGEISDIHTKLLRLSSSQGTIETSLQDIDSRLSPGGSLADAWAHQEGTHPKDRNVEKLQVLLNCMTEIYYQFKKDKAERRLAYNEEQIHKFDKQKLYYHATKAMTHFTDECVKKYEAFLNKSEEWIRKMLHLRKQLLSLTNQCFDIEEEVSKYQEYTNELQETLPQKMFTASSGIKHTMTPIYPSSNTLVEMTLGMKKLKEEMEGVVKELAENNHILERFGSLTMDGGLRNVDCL

[5] = biological target: Serine/threonine-protein kinase 24 (Homo sapiens) (UniProt Q9Y6E0); test: Inhibition of human MST3 in HL-60 cells lysate assessed as reduction of labeling of acyl-phosphate ATP probe at 100 nM

Measured: inhibition

Chain of 1-phosphatidylinositol 3-phosphate 5-kinase (Homo sapiens) (Q9Y2I7 whole entry): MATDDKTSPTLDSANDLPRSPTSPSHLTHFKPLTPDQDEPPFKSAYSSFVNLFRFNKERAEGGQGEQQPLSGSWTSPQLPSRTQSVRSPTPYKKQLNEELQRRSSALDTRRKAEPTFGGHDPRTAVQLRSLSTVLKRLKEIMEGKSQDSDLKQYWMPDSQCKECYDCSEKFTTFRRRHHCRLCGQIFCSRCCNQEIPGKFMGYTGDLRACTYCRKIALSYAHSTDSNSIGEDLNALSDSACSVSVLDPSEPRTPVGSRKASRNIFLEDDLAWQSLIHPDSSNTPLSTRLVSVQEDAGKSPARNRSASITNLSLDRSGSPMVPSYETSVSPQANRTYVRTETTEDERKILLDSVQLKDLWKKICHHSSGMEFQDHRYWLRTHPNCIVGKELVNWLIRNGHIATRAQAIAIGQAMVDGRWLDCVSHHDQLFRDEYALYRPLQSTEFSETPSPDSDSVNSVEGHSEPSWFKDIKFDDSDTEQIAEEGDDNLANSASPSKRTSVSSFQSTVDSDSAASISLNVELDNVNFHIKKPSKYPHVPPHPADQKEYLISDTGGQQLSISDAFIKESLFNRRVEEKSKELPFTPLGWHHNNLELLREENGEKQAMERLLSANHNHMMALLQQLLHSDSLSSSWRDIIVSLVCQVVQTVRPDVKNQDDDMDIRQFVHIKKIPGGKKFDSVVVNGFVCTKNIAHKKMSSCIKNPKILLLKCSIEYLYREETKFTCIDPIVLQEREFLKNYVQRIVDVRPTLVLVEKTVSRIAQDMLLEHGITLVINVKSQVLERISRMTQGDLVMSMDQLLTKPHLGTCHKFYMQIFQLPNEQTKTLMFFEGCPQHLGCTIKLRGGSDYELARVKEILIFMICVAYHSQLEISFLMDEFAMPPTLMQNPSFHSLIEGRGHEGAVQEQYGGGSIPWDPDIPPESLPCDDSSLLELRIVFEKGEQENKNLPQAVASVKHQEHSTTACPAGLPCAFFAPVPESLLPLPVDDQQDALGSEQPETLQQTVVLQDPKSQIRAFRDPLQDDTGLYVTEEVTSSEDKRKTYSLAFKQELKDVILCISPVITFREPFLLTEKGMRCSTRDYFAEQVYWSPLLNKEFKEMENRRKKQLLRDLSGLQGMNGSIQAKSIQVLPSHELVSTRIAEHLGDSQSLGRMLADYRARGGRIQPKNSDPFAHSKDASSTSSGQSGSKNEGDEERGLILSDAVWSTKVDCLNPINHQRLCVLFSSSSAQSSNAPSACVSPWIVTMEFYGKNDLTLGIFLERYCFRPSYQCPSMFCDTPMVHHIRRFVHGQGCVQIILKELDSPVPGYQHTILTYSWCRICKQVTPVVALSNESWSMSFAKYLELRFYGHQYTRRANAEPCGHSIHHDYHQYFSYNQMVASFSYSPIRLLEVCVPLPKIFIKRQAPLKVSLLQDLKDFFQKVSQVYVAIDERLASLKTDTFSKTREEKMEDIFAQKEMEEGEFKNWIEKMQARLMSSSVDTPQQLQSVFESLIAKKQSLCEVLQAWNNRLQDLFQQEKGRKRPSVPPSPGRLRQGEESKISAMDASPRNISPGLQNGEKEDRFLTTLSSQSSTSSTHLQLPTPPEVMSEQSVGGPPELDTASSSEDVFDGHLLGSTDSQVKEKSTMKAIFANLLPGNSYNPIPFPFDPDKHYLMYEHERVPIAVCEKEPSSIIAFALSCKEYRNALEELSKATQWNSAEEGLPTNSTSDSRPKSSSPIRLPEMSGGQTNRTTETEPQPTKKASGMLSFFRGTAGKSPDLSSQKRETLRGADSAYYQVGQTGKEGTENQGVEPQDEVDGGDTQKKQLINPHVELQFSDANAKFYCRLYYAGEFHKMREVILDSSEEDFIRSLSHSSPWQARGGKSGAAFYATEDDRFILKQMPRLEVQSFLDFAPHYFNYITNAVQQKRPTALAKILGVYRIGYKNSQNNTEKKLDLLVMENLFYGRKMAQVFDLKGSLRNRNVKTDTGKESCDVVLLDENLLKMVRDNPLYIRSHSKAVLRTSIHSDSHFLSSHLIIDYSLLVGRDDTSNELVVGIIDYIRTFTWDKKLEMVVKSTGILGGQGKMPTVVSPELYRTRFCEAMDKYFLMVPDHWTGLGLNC
Chain of Serine/threonine-protein kinase 24 (Homo sapiens) (Q9Y6E0 whole entry, looked up): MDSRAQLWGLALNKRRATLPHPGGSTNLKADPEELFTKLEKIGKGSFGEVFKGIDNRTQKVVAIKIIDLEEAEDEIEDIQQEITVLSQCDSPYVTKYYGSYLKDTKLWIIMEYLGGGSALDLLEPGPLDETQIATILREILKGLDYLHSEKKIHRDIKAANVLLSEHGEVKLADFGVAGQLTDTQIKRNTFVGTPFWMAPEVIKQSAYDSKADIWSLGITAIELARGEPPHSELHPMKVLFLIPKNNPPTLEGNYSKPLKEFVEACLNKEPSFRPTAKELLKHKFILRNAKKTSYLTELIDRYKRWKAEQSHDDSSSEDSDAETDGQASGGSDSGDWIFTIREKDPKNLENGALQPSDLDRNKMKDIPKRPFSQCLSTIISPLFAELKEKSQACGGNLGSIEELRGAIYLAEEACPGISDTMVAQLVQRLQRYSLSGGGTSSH

C[C@H]1COc2c(NCCCc3ccccn3)c(F)c(N)c3c(=O)c(C#N)cn1c23
< 35%: all assays above

C[C@H]1COc2c(NCCCc3ccccn3)c(F)c(N)c3c(=O)c(C(=O)O)cn1c23
< 35%: all assays above

C[C@H]1COc2c(NCCCn3cccn3)c(F)c(N)c3c(=O)c(C(=O)O)cn1c23
< 35%: all assays above

C[C@H]1COc2c(NCCCn3cccn3)c(F)c(N)c3c(=O)c(C#N)cn1c23
< 35%: all assays above
